The results in this text go back to patent publication US7718808B2, “Thiazole derivatives” (Kyowa Hakko Kirin Co., Ltd., priority 2003, dated 2010).

T1 sequence (P30543 whole entry): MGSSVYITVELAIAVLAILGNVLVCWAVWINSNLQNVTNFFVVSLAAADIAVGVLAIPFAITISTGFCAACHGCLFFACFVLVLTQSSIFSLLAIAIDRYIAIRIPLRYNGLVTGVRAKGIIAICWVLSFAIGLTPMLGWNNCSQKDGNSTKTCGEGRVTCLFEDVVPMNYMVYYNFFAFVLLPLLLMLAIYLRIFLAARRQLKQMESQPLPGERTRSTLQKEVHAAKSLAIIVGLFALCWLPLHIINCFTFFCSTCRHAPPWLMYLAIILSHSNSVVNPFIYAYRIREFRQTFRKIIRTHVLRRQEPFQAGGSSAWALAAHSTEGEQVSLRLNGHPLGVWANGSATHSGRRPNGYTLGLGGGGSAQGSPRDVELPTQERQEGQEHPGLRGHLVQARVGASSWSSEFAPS

The first data set has as its target T1, Rat Adenosine A2A Receptor (Rattus norvegicus, UniProt P30543).
T1 construct: tissue Nippon SLC (animals); host or cells: rat (SD) corpus striatum membrane homogenate
Nature of the data set: Adenosine A2A receptor binding test (3H-CGS21680 binding, rat corpus striatum). Particulars: test compound 10^−7 mol/L, 25° C., 120 minutes. The method, then:
This test was carried but in a similar manner to a Bruns et al's method (Molecular Pharmacology, Vol. 29, p. 331, 1986).
Corpus striatum of rats (SD rat, by Nippon SLC) was suspended in 50 mL of an ice-cooled 50 mmol/L tris(hydroxymethyl)aminomethane hydrochloride (Tris-HCl) buffer (pH 7.7) using a polytron homogenizer (by Kinematica). The resulting homogenate was centrifuged (48,000×g, 20 minutes), and the resulting precipitate was again suspended by adding the same amount of a 50 mmol/L Tris-HCl buffer, followed by centrifugation under the same condition. The resulting final precipitate was suspended by adding a 50 mmol/L Tris-HCl buffer [containing 10 mmol/L magnesium chloride, adenosine deaminase 0.02 units/mg tissue (by Sigma)] so that the tissue concentration was 5 mg (wet weight)/mL.
To 100 μL of the above purified tissue suspension, were added 80 μL (final concentration […]) of tritium-labeled CGS-21680 {^3H-2-[p-(2-carboxyethyl)phenethylamino]-5′-(N-ethylcarboxamido)-adenosine: 40 curies/mmol; by New England Nuclear [The Journal of Pharmacology and Experimental Therapeutics, Vol. 251, p. 888, 1989]} and 20 μL of a test compound solution (10^−7 mol/L; a solution of a test compound in DMSO was diluted with Tris-HCl buffer). The resulting mixture was allowed to stand at 25° C. for 120 minutes, followed by rapid suction filtration through a glass fiber paper filter (GF/C; by Whatman). The filter was immediately washed three times with 200 μL of an ice-cooled 50 mmol/L Tris-HCl buffer. The glass fiber paper filter was transferred into a vial, Microscinti (by Perkin Elmer) was added thereto, and the radioactivity level was measured with Topcount (by Perkin Elmer).
The inhibition rate of the test compound to the adenosine A2A receptor binding (^3H-CGS21680 binding) was calculated according to the following formula.
Amount of total binding means the ^3H-CGS21680 binding radioactivity content in the absence of the test compound. Amount of non-specific binding means the ^3H-CGS21680 binding radioactivity content in the presence of 100 μmol/L cyclopentyladenosine (CPA; by Sigma). Amount of binding in the presence of test compound means the ^3H-CGS21680 binding radioactivity content in the presence of 10^−7 mol/L of the test compound.
In the case of `Cc1ncc(C(=O)Nc2nc(-c3ccco3)c(C(=O)c3ccccn3)s2)cn1` [Compound 228], the “Rat Adenosine A2A Receptor Binding Inhibition rate (%) (10^−7 mol/L)” value stood at 84%.
The same measure, in the same setting: the result for `O=C(Nc1nc(-c2ccco2)c(C(=O)C2CCCC2)s1)c1ccncc1` [Compound 431, N-[5-(Cycolopentylcarbonyl)-4-(2-furyl)thiazol-2-yl]-pyridine-4-carboxamide] reads 98%.

The data set is the same for the next values; noted with them: test compound 10^−7 mol/L, 25° C., 120 minutes, read-out: Rat Adenosine A2A Receptor Binding Inhibition rate (%) (10^−7 mol/L).
As to `O=C(Nc1nc(-c2ccco2)c(-c2ccncc2)s1)C1CCCCC1` [Compound 4, N-[4-(2-Furyl)-5-(4-pyridyl)thiazol-2-yl]cyclohexanecarboxamide], the inhibition at 0.1 µM worked out at 95%.
Still for that read-out and setting: the result for `O=C(Nc1nc(-c2ccco2)c(-c2ccncc2)s1)c1cccnc1` [Compound 5, N-[4-(2-Furyl)-5-(4-pyridyl)thiazol-2-yl]pyridine-3-carboxamide] reads 100%; that for `O=C(Nc1nc(-c2ccco2)c(-c2ccncc2)s1)c1ccco1` [Compound 8, N-[4-(2-Furyl)-5-(4-pyridyl)thiazol-2-yl]furan-2-carboxamide], 100%.
On the same count and under the same terms, to `O=C(Nc1nc(-c2ccco2)c(-c2ccncc2)s1)c1ccoc1` [Compound 9, N-[4-(2-Furyl)-5-(4-pyridyl)thiazol-2-yl]furan-3-carboxamide] belongs 100%.
On the same count and under the same terms, to `O=C(Nc1nc(-c2ccco2)c(-c2ccncc2)s1)c1ccc(O)nc1` [Compound 11, N-[4-(2-Furyl)-5-(4-pyridyl)thiazol-2-yl]-2-hydroxypyridine-5-carboxamide] belongs 100%.
For the compound `O=C(Nc1nc(-c2ccco2)c(-c2ccncc2)s1)c1ccc(Cn2ccnc2)cc1` [Compound 19, N-[4-(2-Furyl)-5-(4-pyridyl)thiazol-2-yl]-4-(imidazol-1-ylmethyl)benzamide], the inhibition at 0.1 µM came to 90%.
As for `O=C(Nc1nc(-c2ccco2)c(Cc2ccccc2)s1)c1ccncc1` [Compound 23, N-[5-Benzyl-4-(2-furyl)thiazol-2-yl]pyridine-4-carboxamide], the inhibition at 0.1 µM amounted to 85%.
The same measure, in the same setting: the result for `CCOC(=O)c1sc(NC(=O)c2ccncc2)nc1-c1ccco1` [Compound 24, N-(5-(Ethoxycarbonyl)-4-(2-furyl)thiazol-2-yl]pyridine-4-carboxamide] reads 88%.
Turning to `CN1CCN(c2cc(C(=O)Nc3nc(-c4ccco4)c(N4CCOCC4)s3)ccn2)CC1` [Compound 41, N-[4-(2-Furyl)-5-morpholinothiazol-2-yl]-2-(4-methylpiperazin-1-yl)pyridine-4-carboxamide], the inhibition at 0.1 µM was 92%.
Consider `CS(=O)(=O)c1ccc(N2CCC(C(=O)Nc3nc(-c4ccco4)c(N4CCOCC4)s3)CC2)nc1` [Compound 46, N-[4-(2-Furyl)-5-morpholinothiazol-2-yl]-1-[5-(methanesulfonyl)pyridin-2-yl]piperidine-4-carboxamide], for which the inhibition at 0.1 µM stood at 95%.
Same read-out and setting: the result for `O=C(Nc1nc(-c2ccco2)c(CN2CCSCC2)s1)c1ccncc1` [Compound 87, N-[4-(2-Furyl)-5-(thiomorpholinomethyl)thiazol-2-yl]pyridine-4-carboxamide] reads 100%.
For the compound `O=C(Nc1nc(-c2ccco2)c(CN2CCOCC2)s1)c1cccnc1` [Compound 94, N-[4-(2-Furyl)-5-(morpholinomethyl)thiazol-2-yl]pyridine-3-carboxamide], the inhibition at 0.1 µM was 100%.
On the same count and under the same terms, to `O=C(Nc1nc(-c2ccco2)c(C(=O)c2ccccc2)s1)c1ccncc1` [Compound 99, N-[5-Benzoyl-4-(2-furyl)thiazol-2-yl]pyridine-4-carboxamide] belongs 98%; to `CC(C)n1nc(-c2sc(NC(=O)c3ccncc3)nc2-c2ccco2)ccc1=O` [Compound 131, N-[4-(2-Furyl)-5-(1-isopropyl-6-oxo-1,6-dihydropyridazin-3-yl)thiazol-2-yl]pyridine-4-carboxamide], 99%; to `O=C(Nc1nc(-c2ccco2)c(C(=O)c2ccc(F)cc2)s1)c1ccncc1` [Compound 170, N-[5-(4-Fluorobenzoyl)-4-(2-furyl)thiazol-2-yl]pyridine-4-carboxamide], 87%.
The same measure, in the same setting: the result for `COC(=O)Nc1nc(-c2ccco2)c(C(=O)c2ccccn2)s1` [Compound 249, Methyl N-[4-(2-furyl)-5-(pyridin-2-ylcarbonyl)thiazol-2-yl]carbamate] reads 85%.
Still for that read-out and setting: to `Cc1ccc(C(=O)Nc2nc(-c3ccco3)c(C(=O)C3CCOCC3)s2)cn1` [Compound 504, N-[4-(2-Furyl)-5-(tetrahydropyran-4-ylcarbonyl)thiazol-2-yl]-2-methylpyridine-5-carboxamide] belongs 100%; to `O=C(CN1CCOCC1)Nc1nc(-c2ccco2)c(C(=O)C2CCOCC2)s1` [Compound 558, N-[4-(2-Furyl)-5-(tetrahydropyran-4-ylcarbonyl)thiazol-2-yl]-2-morpholinoacetamide], 92%.

Tested on in the next data set: not given
Experiment: not given
Conditions: not given
One may read the melting point as the temperature of the solid-liquid transition. Compound `CC(C)n1nc(-c2sc(NC(=O)c3ccncc3)nc2-c2ccco2)ccc1=O` [Compound 131, N-[4-(2-Furyl)-5-(1-isopropyl-6-oxo-1,6-dihydropyridazin-3-yl)thiazol-2-yl]pyridine-4-carboxamide] showed a melting point of 190 to 194 °C.
Still for that read-out and setting: to `O=C(Nc1nc(-c2ccoc2)c(C(=O)c2ccccn2)s1)c1ccncc1` [Compound 608, N-[4-(3-Furyl)-5-(pyridin-2-ylcarbonyl)thiazol-2-yl]pyridine-4-carboxamide] belongs 264 to 266 °C; to `O=C(Nc1nc(-c2ccoc2)c(C(=O)C2CCOCC2)s1)C1CC1` [Compound 611, N-[4-(3-Furyl)-5-(tetrahydropyran-4-ylcarbonyl)thiazol-2-yl]cyclopropanecarboxamide], 231 to 232 °C; to `O=C(Nc1nc(-c2ccoc2)c(C(=O)C2CCOCC2)s1)c1ccc(Cl)nc1` [Compound 612, 2-Chloro-N-[4-(3-furyl)-5-(tetrahydropyran-4-ylcarbonyl)thiazol-2-yl]pyridine-5-carboxamide], 237 to 239 °C.
Same read-out and setting: to `Cc1cncc(C(=O)Nc2nc(-c3ccoc3)c(C(=O)C3CCOCC3)s2)c1` [Compound 613, N-[4-(3-Furyl)-5-(tetrahydropyran-4-ylcarbonyl)thiazol-2-yl]-5-methylpyridine-3-carboxamide] belongs 244 to 246 °C; to `Cc1ccc(C(=O)Nc2nc(-c3ccoc3)c(C(=O)C3CCOCC3)s2)cn1` [Compound 614, N-[4-(3-Furyl)-5-(tetrahydropyran-4-ylcarbonyl)thiazol-2-yl]-2-methylpyridine-5-carboxamide], 217 to 219 °C.
In turn, `Cc1cc(C(=O)Nc2nc(-c3ccoc3)c(C(=O)C3CCOCC3)s2)ccn1` [Compound 615, N-[4-(3-Furyl)-5-(tetrahydropyran-4-ylcarbonyl)thiazol-2-yl]-2-methylpyridine-4-carboxamide] gave a melting point of 202 to 204 °C.
The same measure, in the same setting: to `O=C(Nc1nc(-c2ccoc2)c(C(=O)C2CCOCC2)s1)c1ccnc(Cl)c1` [Compound 616, 2-Chloro-N-[4-(3-furyl)-5-(tetrahydropyran-4-ylcarbonyl)thiazol-2-yl]pyridine-4-carboxamide] belongs 202 to 204 °C; to `O=C(Cc1cccnc1)Nc1nc(-c2ccoc2)c(C(=O)C2CCOCC2)s1` [Compound 618, N-[4-(3-Furyl)-5-(tetrahydropyran-4-ylcarbonyl)thiazol-2-yl]-2-(3-pyridyl)acetamide], 195 to 197 °C.
On the same count and under the same terms, to `COc1cccc(C(=O)Nc2nc(-c3ccoc3)c(C(=O)C3CCOCC3)s2)c1` [Compound 619, N-[4-(3-Furyl)-5-(tetrahydropyran-4-ylcarbonyl)thiazol-2-yl]-3-methoxybenzamide] belongs 194 to 196 °C; to `O=C(Nc1nc(-c2ccoc2)c(C(=O)C2CCOCC2)s1)c1ccc(F)cc1` [Compound 620, 4-Fluoro-N-[4-(3-furyl)-5-(tetrahydropyran-4-ylcarbonyl)thiazol-2-yl]benzamide], 231 to 232 °C; to `O=C(Nc1nc(-c2ccccn2)c(C(=O)c2ccccn2)s1)c1ccncc1` [Compound 631, N-[4-(2-Pyridyl)-5-(pyridin-2-ylcarbonyl)thiazol-2-yl]pyridine-4-carboxamide], 232 to 234 °C.
Same read-out and setting: the result for `O=C(Nc1nc(-c2ccccc2)c(C(=O)c2ccccn2)s1)c1ccncc1` [Compound 634, N-[4-Phenyl-5-(pyridin-2-ylcarbonyl)thiazol-2-yl]pyridine-4-carboxamide] reads 231 to 235 °C.
